This passage reports Activity, MIC90 and MIC50 results from ChEMBL document CHEMBL1132139, “2-Naphthylcarbapenems: broad spectrum antibiotics with enhanced potency against MRSA” (1999).

The subject of experiment [1] is Staphylococcus aureus. The experiment is described as follows: Compound was evaluated for the antibacterial activity against methicillin-sensitive Staphylococcus aureus (MSSA)as fold improvement in activity with respect to imipenem. It counts as functional.
The next experiment deals with Klebsiella. Briefly: Compound was evaluated for the antibacterial activity against Klebsiella.8 as fold improvement in activity with respect to imipenem. It counts as functional.
For another experiment, the system named is Escherichia coli. Briefly: Compound was evaluated for the antibacterial activity against Escherichia coli as fold improvement in activity with respect to imipenem. In kind it is functional.
The next experiment relates to Proteus. Briefly: Compound was evaluated for the antibacterial activity against Proteus as fold improvement in activity with respect to imipenem. In kind it is functional, Proteus sp.
The next experiment relates to Serratia. The experiment is described as follows: Compound was evaluated for the antibacterial activity against Serratia as fold improvement in activity with respect to imipenem. In kind it is functional.
For another experiment, the system named is Enterobacter. The experiment is described as follows: Compound was evaluated for the antibacterial activity against Enterobacter as fold improvement in activity with respect to imipenem. It counts as functional.
Experiment [2] deals with T1, Dipeptidase 1 (Sus scrofa) (UniProt P22412).
T1 sequence (whole entry): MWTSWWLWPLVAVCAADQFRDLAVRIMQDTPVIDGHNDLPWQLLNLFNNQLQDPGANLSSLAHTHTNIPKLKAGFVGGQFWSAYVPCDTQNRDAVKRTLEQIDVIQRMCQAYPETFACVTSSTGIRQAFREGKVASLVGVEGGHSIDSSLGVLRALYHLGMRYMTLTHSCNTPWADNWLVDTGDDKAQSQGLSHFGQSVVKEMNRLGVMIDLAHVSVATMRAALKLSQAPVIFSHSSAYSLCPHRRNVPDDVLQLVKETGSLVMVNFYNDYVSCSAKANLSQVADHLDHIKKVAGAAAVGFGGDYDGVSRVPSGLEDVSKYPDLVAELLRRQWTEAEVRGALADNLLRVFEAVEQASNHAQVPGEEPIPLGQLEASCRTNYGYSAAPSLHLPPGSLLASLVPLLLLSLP
Briefly: Dehydropeptidase-1 susceptibility.

The subject of the next experiment is Pseudomonas aeruginosa. The experiment is described as follows: Compound was evaluated for the antibacterial activity against Pseudomonas aeruginosa as fold improvement in activity with respect to imipenem. In kind it is functional.
The test system of another experiment is Enterococcus. The experiment is described as follows: Compound was evaluated for the antibacterial activity against Enterococcus as fold improvement in activity with respect to imipenem. It counts as functional.
Experiment [3] in a line: Compound was evaluated for the antibacterial activity against methicillin-resistant coagulase-negative staphylococci (MRCNS)as fold improvement in activity with respect to imipenem. It counts as functional, Staphylococcus […].
Experiment [4] concerns Staphylococcus aureus. Briefly: Compound was evaluated for the antibacterial activity against methicillin-resistant Staphylococcus aureus (MRSA)as fold improvement in activity with respect to imipenem. It counts as functional.
Experiment [5] relates to Staphylococcus aureus. The experiment is described as follows: Compound was evaluated for the anti-MRSA activity as MIC90. In kind it is functional.
In experiment [6] the test system is Staphylococcus aureus. The experiment is described as follows: Compound was evaluated for the anti-MRSA activity as MIC50. In kind it is functional.
Experiment [7] deals with coagulase-negative Staphylococcus. The experiment is described as follows: Compound was evaluated for the anti-MRCNS activity as MIC50.

≈ marks a conversion by molar mass, not a printed value.

As for `C[C@@H](O)[C@H]1C(=O)N2C(C(=O)[O-])=C(c3cc(C[n+]4cccc(N)c4)c4ccccc4c3)C[C@H]12`, the Activity came out at 0.39 with Staphylococcus aureus [1]; 0.01 in the experiment with Klebsiella; 0.09 with Escherichia coli; 0.13 in the experiment with Proteus; 0.03 with Serratia; 0.02 in the experiment on Enterobacter. The Activity in experiment [2] was determined as 0.01; in the experiment on Pseudomonas aeruginosa, 0.01; with Enterococcus it was 3.2; in experiment [3], 12; in the experiment on Staphylococcus aureus [4], 6.9.

Take `C[C@H](O)[C@H]1C(=O)N2C(C(=O)[O-])=C(c3cc(C[n+]4ccccc4N)c4ccccc4c3)C[C@H]12`: the Activity in the experiment with Staphylococcus aureus [1] stood at 0.13; in the experiment with Klebsiella, 0.02; with Escherichia coli, 0.04; in the experiment on Proteus, 0.1; in the experiment with Serratia, 0.02; with Enterobacter, 0.01. Moreover, the Activity was 0.01 in experiment [2]; 0.01 in the experiment with Pseudomonas aeruginosa; 2.2 in the experiment on Enterococcus; 1.9 in experiment [3]; 1.4 in the experiment with Staphylococcus aureus [4].

Regarding `C[C@H](O)[C@H]1C(=O)N2C(C(=O)[O-])=C(c3cc(C[n+]4ccc(N)cc4)c4ccccc4c3)C[C@H]12`, the Activity in the experiment on Staphylococcus aureus [1] is on record as 0.42; with Klebsiella, 0.02; with Escherichia coli, 0.06; with Proteus it was 0.19; in the experiment on Serratia, 0.02; with Enterobacter, 0.02. The Activity in [2] was found to be 0.01; in the experiment with Pseudomonas aeruginosa, 0.01; in the experiment on Enterococcus, 2.2; in experiment [3] it was 24; with Staphylococcus aureus [4], 11.

`C[C@@H](O)[C@H]1C(=O)N2C(C(=O)[O-])=C(c3ccc(C[n+]4ccccc4N)cc3)C[C@H]12`: the Activity worked out at 0.5 with Staphylococcus aureus [1]; 1.1 in the experiment with Klebsiella; 1.7 with Escherichia coli; 4.2 in the experiment on Proteus; 4.4 with Serratia; 3 in the experiment on Enterobacter. The Activity in [2] came out at 0.11; with Pseudomonas aeruginosa it was 0.02; in the experiment with Enterococcus it was 12.9; in [3], 1.6; in the experiment on Staphylococcus aureus [4], 2.

`C[C@@H](O)[C@H]1C(=O)N2C(C(=O)[O-])=C(c3ccc4c(C[n+]5ccc(N)cc5)cccc4c3)C[C@H]12`: the Activity with Staphylococcus aureus [1] came out at 0.42; in the experiment with Klebsiella, 0.21; with Escherichia coli it was 0.4; with Proteus it was 15; with Serratia, 0.69; in the experiment on Enterobacter it was 0.18. Also, the Activity turned out to be 0.03 in experiment [2]; 0.02 with Pseudomonas aeruginosa; 2.7 in the experiment on Enterococcus; 77 in experiment [3]; 12 in the experiment with Staphylococcus aureus [4].

In the case of `C[C@@H](O)[C@H]1C(=O)N2C(C(=O)[O-])=C(c3ccc4cc(C[n+]5cccc(N)c5)ccc4c3)C[C@H]12`, the Activity is reported as 0.53 in the experiment on Staphylococcus aureus [1]; 0.43 with Klebsiella; 1.3 with Escherichia coli; 6.5 in the experiment with Proteus; 3 with Serratia; 0.64 in the experiment on Enterobacter. The Activity worked out at 0.15 in [2]; 0.02 in the experiment on Pseudomonas aeruginosa; 2.3 in the experiment on Enterococcus; 44 in experiment [3]; 13 with Staphylococcus aureus [4].

`C[C@H](O)[C@H]1C(=O)N2C(C(=O)[O-])=C(c3cccc(-c4ccc(C[n+]5ccccc5N)cc4)c3)C[C@H]12` returned an MIC90 with Staphylococcus aureus [5] of 2 µg/mL (≈ 4.39 µM). The Activity was 0.43 with Staphylococcus aureus [1]; 0.04 with Klebsiella; 0.11 with Escherichia coli; 0.38 with Proteus; 0.11 in the experiment with Serratia; 0.04 with Enterobacter. The Activity in experiment [2] was 0.04; with Pseudomonas aeruginosa, 0.01; with Enterococcus, 6.2; in [3], 232; in the experiment with Staphylococcus aureus [4], 154. Besides, the MIC50 in the experiment on Staphylococcus aureus [6] is 1 µg/mL (≈ 2.2 µM); in experiment [7], 2 µg/mL (≈ 4.39 µM).

As for `C[C@@H](O)[C@H]1C(=O)N2C(C(=O)[O-])=C(c3ccc4ccc(C[n+]5ccc(N)cc5)cc4c3)C[C@H]12`, the Activity is 0.53 with Staphylococcus aureus [1]; 0.25 with Klebsiella; 0.33 in the experiment with Escherichia coli; 3.2 with Proteus; 0.97 with Serratia; 0.17 in the experiment on Enterobacter. Moreover, the Activity in [2] turned out to be 0.07; in the experiment with Pseudomonas aeruginosa, 0.01; in the experiment with Enterococcus, 4.9; in [3] it was 55; in the experiment on Staphylococcus aureus [4] it was 16.

For `CC(O)C1C(=O)N2C(C(=O)O)=C(c3ccc4ccccc4c3)CC12` (stereo not given), the Activity came to 0.5 in the experiment on Staphylococcus aureus [1]; 0.08 in the experiment on Klebsiella; 0.31 in the experiment on Escherichia coli; 2.8 with Proteus; 0.09 with Serratia; 0.1 in the experiment on Enterobacter. Also, the Activity in [2] came to 0.09; in the experiment with Pseudomonas aeruginosa, 0.01; in the experiment with Enterococcus it was 2.6; in [3], 2.7; with Staphylococcus aureus [4], 3.3.

Molecule `C[C@@H](O)[C@H]1C(=O)N2C(C(=O)[O-])=C(c3ccc4cc(C[n+]5ccccc5N)ccc4c3)C[C@H]12` returned an MIC90 with Staphylococcus aureus [5] of 4 µg/mL (≈ 9.31 µM). Besides, the Activity in the experiment with Staphylococcus aureus [1] worked out at 0.39; with Klebsiella, 0.38; in the experiment on Escherichia coli it was 1.4; in the experiment with Proteus, 5; with Serratia it was 2; in the experiment on Enterobacter, 0.85. Further, the Activity was 0.2 in experiment [2]; 0.02 in the experiment on Pseudomonas aeruginosa; 4.4 with Enterococcus; 323 in experiment [3]; 28 with Staphylococcus aureus [4]. Further, the MIC50 with Staphylococcus aureus [6] worked out at 2 µg/mL (≈ 4.66 µM); in [7] it was 8 µg/mL (≈ 18.6 µM).

Turning to `CN[C@H](CC(C)C)C(=O)N[C@H]1C(=O)N[C@@H](CC(N)=O)C(=O)N[C@H]2C(=O)N[C@H]3C(=O)N[C@H](C(=O)N[C@H](C(=O)O)c4cc(O)cc(O)c4-c4cc3ccc4O)[C@H](O)c3ccc(c(Cl)c3)Oc3cc2cc(c3O[C@@H]2O[C@H](CO)[C@@H](O)[C@H](O)[C@H]2O[C@H]2C[C@](C)(N)[C@H](O)[C@H](C)O2)Oc2ccc(cc2Cl)[C@H]1O` [VANCOMYCIN], the MIC90 in the experiment on Staphylococcus aureus [5] came to 2 µg/mL (≈ 1.38 µM). Also, the MIC50 against Staphylococcus aureus [6] was 2 µg/mL (≈ 1.38 µM); in experiment [7], 4 µg/mL (≈ 2.76 µM).

Consider `C[C@@H](O)[C@H]1C(=O)N2C(C(=O)[O-])=C(c3ccc4cccc(C[n+]5ccccc5N)c4c3)C[C@H]12`, for which the Activity in the experiment with Staphylococcus aureus [1] came to 0.1; with Klebsiella, 0.03; in the experiment on Escherichia coli, 0.04; with Proteus, 0.22; in the experiment with Serratia, 0.05; with Enterobacter it was 0.01. The Activity worked out at 0 in [2]; 0.02 with Pseudomonas aeruginosa; 2.1 in the experiment on Enterococcus; 8 in experiment [3]; 4.9 with Staphylococcus aureus [4].

The MIC90 is an inhibitory concentration at the 90% level, which refers to growth in some studies and to a panel of isolates in others. Lower therefore signals greater potency. The MIC50 is the lowest concentration that inhibits either 50% of growth or 50% of the strains tested, depending on the study. The low end stands for greater potency, the high end for weaker potency.
